Data taken from ChEMBL document CHEMBL1201862, “PubChem BioAssay data set” (2004).
The source made the active and inactive calls.

Assays:
[1] = Luminescence Cell-Based Dose Confirmation HTS to Identify Inhibitors of Platelet Dense Granule Release. [Related pubchem assays: 1663 (Primary HTS), 1678 (Summary of Project)]; format: functional
Beta-galactosidase = Beta-galactosidase (Escherichia coli, UniProt Q8VNN2); assay: Dose response counterscreen for EBI2 assay utilizing the enzyme, b-galactosidase.; format: functional
[2] = biological target: Luciferin 4-monooxygenase (Photinus pyralis, UniProt P08659); assay: firefly luciferase enzyme inhibitors, dose response, biochemical, luminescence (AID 1891)
[3] = biological target: Glyceraldehyde-3-phosphate dehydrogenase (Homo sapiens, UniProt P04406)
Bcl-2-related protein A1 [4] = biological target: T1, Bcl-2-related protein A1 (Mus musculus, UniProt Q07440); assay: Bfl-1 inhibitors blocking BH3 peptide binding, confirmation, biochemical, TR-FRET, mouse Bfl-1 (AID 621);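 also: TR-FRET binding of GST-Bfl-1 to FITC-labelled Bid peptide via terbium antibody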
T1 sequence (Q07440 whole entry): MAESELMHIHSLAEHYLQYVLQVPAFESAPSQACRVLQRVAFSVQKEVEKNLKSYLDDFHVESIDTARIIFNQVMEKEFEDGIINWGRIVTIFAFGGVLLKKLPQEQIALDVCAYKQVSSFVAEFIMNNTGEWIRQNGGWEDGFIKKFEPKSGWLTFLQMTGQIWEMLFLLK

Bcl-2-related protein A1 [5] = biological target: T1, Bcl-2-related protein A1; assay: Bfl-1 binding inhibitors, SAR follow-up, biochemical, fluorescence polarization (AID 1070)
Cytochrome P450 3A4 = Cytochrome P450 3A4 (Homo sapiens, UniProt P08684);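 also: CYP3A4 tested as one member of a cytochrome P450 panel screen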
Cytochrome P450 1A2 = biological target: T2, Cytochrome P450 1A2 (Homo sapiens, UniProt P05177);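 also: PubChem cytochrome P450 panel assay, CYP1A2 panel member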
T2 sequence (P05177 whole entry): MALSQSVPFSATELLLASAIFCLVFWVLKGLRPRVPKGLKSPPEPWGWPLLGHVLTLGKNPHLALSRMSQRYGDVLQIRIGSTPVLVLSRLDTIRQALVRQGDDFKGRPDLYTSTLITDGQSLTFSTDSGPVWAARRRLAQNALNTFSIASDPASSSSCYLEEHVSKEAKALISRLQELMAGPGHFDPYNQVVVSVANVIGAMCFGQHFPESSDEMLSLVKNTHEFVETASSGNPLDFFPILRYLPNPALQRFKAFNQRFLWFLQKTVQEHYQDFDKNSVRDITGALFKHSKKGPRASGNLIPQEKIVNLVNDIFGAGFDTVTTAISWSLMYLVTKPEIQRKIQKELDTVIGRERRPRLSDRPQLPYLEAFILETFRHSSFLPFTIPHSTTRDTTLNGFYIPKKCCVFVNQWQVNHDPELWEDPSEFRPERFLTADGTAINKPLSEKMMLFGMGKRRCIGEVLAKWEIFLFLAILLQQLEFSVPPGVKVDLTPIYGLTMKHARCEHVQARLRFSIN

Prothrombin = Prothrombin (Homo sapiens, UniProt P00734); assay: Thrombin 1536 HTS Dose Response Confirmation. [Related pubchem assays: 1046 (Thrombin 1536 HTS; hits were confirmed in this assay)]; format: functional
[6] = Vero cell cytotoxicity, dose response, cytotoxicity control for Vif-APOBEC3G degradation inhibitor project, Vero cells (AID 1117358); format: functional; settings: Human immunodeficiency virus 1, Vero
[7] = biological target: T3, Mannose-6-phosphate isomerase (Homo sapiens, UniProt P34949); assay: human PMI inhibitors, high substrate, primary screen, biochemical, fluorescence intensity, high mannose 6-phosphate (AID 1220)
T3 sequence (P34949 whole entry): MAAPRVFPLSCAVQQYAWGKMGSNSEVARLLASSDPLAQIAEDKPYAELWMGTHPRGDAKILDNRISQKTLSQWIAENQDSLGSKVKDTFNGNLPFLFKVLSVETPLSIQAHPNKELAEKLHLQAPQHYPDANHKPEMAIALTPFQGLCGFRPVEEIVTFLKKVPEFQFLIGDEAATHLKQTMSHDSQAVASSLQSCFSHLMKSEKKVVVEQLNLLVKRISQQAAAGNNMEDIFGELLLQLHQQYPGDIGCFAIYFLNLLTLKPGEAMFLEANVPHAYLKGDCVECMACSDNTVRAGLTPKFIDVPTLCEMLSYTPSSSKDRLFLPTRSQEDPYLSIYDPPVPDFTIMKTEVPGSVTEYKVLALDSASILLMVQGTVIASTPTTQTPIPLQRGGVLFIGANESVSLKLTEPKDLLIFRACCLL

BJ [8] = assay: cytotoxicity toward BJ-TERT fibroblasts, dose response, cell-based, RAS-independent, luminescence (AID 1933); format: functional; settings: Homo sapiens
BJ [9] = assay: cytotoxicity toward BJ-TERT-LT-ST fibroblasts, dose response, cell-based, RAS-independent, luminescence (AID 1935); format: functional; settings: Homo sapiens;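 also: BJ fibroblasts immortalized with TERT plus LT and ST oncogenes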
Cytochrome P450 2C9 = Cytochrome P450 2C9 (Homo sapiens, UniProt P11712)
BJ [10] = assay: cells; format: functional, cell-based; settings: Homo sapiens
Paired box protein Pax-8 = Paired box protein Pax-8 (Homo sapiens, UniProt Q06710); assay: inhibitors of PAX8-driven TPO luciferase reporter, dose response, RMG-I cells, cherry-pick (AID 687027); format: functional, cell-based;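 also: luciferase reporter driven by Pax8 target thyroperoxidase promoter measured by SteadyGlo luminescence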
[11] = cytotoxicity toward DRD oncogenic fibroblasts, dose response, cell-based, non-viral oncogenic, luminescence (AID 1934); format: functional; settings: Homo sapiens
BJ [12] = assay: cytotoxicity toward Ras-transformed BJeLR fibroblasts, dose response, cell-based, alamar blue fluorescence, cherrypicked samples (AID 2631); format: functional; settings: Homo sapiens;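 also: confirmatory dose-response assay in RAS-dependent BJ fibroblasts engineered with TERT, LT and ST, with cytotoxicity read by fluorescence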
INS1 = assay: beta cell apoptosis inhibitors, cytokine rescue, dose response, luminescence, retest (AID 449756); format: functional, cell-based; settings: Rattus norvegicus;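 also: cell death triggered by IL-1 beta plus TNF-alpha plus IFN-gamma mixture; protective hits raise ATP signal compared with cytokine alone wells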
[13] = cytotoxicity in KRAS-transformed pancreatic duct cells, primary screen, cell-based, fluorescence, HTS (AID 431); format: functional; settings: Homo sapiens;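 also: cell line used: HPDE-C7K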
[14] = cytotoxicity in HPDE-C7 cells, cell-based, fluorescence, HTS (AID 430); format: functional; settings: Homo sapiens
cells = format: functional
[15] = biological target: T4, Heat shock factor protein 1 (Mus musculus, UniProt P38532); assay: inhibition of MG132-induced HSE-luciferase signal, confirmation, cell-based, NIH3T3, luminescence, dose retest (AID 2382); format: functional;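 also: NIH3T3 fibroblasts with HSF1-driven luciferase reporter stressed by proteasome inhibitor MG132; luminescence from HSF1-driven luciferase expression after 8 hours of MG132 stress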
T4 sequence (P38532 whole entry): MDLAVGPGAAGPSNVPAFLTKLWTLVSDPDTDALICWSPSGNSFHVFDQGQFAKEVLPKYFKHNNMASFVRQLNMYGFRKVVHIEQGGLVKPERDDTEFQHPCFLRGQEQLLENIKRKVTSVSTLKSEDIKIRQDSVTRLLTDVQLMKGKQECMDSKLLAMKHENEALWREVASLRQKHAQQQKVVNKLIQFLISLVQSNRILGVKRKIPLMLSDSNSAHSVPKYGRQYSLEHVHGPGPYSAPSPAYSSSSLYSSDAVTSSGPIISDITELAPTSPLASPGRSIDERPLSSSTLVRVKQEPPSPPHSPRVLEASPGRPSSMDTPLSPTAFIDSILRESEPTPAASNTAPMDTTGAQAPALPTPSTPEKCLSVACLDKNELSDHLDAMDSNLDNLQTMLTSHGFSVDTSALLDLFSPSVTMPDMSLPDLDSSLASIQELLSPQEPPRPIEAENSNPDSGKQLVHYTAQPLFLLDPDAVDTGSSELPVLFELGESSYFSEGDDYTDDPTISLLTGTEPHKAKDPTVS

[16] = LGR2 antagonists, dose response, cell-based, HEK293, CRE-luciferase reporter, cherry pick, set 2 (AID 743343); format: functional;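 also: transfected cells were stimulated with diluted bursicon conditioned medium after compound addition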
HEK293 = assay: inhibitors of LMP1-driven NF-kB reporter, dose response, cell-based, HEK293, luciferase, cherry-pick (AID 588343); format: functional; settings: Homo sapiens
[17] = MC4R antagonists, dose response, counter-screen for LGR2 antagonist project, cell-based, plate reader, cherry pick (AID 743444); format: functional;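 also: transfected HEK 293 cells stimulated with alpha-MSH peptide; potency of inhibitors of the alpha-MSH evoked signal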
[18] = A Cell Based Secondary Assay To Explore Cytotoxicity of Compounds that Sensitize Mycobacterium Tuberculosis to Beta-Lactam Antibiotics.; format: functional

Glyceraldehyde-3-phosphate dehydrogenase, sequence (P04406 whole entry): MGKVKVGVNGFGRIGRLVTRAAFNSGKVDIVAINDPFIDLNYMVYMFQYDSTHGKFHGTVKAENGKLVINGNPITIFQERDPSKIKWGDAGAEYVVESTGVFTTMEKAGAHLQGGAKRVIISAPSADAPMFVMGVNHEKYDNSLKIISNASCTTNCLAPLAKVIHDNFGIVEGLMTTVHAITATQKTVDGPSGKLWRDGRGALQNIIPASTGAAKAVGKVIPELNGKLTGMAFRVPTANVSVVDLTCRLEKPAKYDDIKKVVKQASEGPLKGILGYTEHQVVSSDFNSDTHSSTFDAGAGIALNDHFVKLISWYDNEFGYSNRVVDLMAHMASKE
Cytochrome P450 3A4, sequence (P08684 whole entry): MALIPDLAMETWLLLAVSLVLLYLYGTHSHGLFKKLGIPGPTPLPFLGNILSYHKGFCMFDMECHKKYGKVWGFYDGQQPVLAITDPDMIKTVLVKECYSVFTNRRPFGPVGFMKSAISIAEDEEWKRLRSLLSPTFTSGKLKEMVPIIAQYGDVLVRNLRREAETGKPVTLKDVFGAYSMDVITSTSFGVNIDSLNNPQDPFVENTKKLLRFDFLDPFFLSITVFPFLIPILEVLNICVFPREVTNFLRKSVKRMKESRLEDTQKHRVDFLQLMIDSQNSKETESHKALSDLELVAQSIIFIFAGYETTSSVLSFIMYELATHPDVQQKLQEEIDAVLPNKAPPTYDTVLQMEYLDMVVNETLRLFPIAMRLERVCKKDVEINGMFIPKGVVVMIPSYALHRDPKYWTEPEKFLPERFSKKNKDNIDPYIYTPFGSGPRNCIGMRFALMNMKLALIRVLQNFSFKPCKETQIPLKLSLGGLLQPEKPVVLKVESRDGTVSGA
Beta-galactosidase, sequence (Q8VNN2 whole entry): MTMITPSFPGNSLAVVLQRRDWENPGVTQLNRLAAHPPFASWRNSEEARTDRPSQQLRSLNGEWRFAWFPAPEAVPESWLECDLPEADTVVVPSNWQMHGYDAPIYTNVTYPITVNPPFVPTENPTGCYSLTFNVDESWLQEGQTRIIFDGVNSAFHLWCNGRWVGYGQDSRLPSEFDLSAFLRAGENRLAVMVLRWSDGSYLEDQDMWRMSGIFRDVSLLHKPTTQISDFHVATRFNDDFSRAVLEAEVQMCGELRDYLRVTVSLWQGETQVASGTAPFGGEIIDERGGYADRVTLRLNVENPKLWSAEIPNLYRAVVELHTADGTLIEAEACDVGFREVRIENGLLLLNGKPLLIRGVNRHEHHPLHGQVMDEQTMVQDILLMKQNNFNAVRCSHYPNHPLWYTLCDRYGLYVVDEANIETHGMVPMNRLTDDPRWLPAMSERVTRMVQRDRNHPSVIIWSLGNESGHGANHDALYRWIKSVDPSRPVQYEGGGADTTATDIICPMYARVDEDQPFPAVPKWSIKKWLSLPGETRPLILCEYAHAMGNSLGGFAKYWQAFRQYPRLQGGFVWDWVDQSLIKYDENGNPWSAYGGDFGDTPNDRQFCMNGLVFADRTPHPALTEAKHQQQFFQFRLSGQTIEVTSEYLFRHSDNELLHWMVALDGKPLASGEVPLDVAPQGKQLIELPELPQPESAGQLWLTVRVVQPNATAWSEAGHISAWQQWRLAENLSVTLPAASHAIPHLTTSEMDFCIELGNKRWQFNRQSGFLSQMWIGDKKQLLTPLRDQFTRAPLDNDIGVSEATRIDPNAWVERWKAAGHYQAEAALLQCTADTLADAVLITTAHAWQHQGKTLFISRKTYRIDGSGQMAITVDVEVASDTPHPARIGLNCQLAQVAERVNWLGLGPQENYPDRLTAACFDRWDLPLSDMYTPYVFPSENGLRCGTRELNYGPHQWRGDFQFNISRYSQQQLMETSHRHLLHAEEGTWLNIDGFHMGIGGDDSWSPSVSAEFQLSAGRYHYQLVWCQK
Luciferin 4-monooxygenase, sequence (P08659 whole entry): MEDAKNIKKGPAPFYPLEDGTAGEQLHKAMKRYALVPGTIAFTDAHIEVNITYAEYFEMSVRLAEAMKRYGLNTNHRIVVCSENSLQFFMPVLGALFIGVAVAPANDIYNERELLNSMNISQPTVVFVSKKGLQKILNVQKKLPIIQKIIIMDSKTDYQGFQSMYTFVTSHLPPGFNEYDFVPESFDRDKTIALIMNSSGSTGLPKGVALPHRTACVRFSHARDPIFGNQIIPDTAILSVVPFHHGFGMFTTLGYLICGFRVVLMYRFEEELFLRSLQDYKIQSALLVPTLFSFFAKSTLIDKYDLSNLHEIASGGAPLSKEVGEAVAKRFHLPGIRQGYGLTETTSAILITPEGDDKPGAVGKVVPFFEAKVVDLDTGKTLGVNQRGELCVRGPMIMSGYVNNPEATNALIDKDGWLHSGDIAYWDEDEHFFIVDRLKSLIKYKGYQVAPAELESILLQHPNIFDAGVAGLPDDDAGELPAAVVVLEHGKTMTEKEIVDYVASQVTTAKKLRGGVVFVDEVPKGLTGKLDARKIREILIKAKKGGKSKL
Paired box protein Pax-8, sequence (Q06710 whole entry): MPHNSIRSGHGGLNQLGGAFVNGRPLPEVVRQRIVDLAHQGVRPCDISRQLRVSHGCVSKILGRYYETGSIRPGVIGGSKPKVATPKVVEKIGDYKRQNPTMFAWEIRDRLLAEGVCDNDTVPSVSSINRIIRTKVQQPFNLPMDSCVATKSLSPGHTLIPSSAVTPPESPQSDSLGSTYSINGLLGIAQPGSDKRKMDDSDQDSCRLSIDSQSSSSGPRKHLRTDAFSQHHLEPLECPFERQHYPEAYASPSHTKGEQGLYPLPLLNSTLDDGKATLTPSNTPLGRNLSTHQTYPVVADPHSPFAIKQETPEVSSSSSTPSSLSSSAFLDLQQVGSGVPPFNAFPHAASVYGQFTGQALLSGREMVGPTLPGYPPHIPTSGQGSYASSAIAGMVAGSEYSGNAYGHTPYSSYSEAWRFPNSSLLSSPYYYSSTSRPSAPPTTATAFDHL
Cytochrome P450 2C9, sequence (P11712 whole entry): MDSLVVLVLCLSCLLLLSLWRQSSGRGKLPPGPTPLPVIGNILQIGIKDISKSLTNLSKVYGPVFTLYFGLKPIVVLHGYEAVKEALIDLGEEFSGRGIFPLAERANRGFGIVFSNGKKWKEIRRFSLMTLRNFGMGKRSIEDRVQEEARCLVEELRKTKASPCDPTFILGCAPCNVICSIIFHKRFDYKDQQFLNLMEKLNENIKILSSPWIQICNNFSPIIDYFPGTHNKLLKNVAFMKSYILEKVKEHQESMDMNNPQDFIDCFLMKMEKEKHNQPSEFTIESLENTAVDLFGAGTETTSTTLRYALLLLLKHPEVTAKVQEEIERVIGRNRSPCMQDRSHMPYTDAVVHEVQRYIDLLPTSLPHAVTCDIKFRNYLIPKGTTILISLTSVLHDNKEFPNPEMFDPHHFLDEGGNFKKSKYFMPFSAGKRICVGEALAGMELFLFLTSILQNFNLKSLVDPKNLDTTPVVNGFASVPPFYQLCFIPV

COc1cccc(CN2CCN(C(=O)COc3ccc4ccccc4c3)CC2)c1
EC50 [1]: > 112 µM (not active)
IC50 (Beta-galactosidase): > 80 µM (inactive)
EC50 [2]: > 112 µM (not active)

O=C1C(Cl)=C(Cl)C(=O)N1c1ccccc1Cl
IC50 [3]: > 100 µM (not active)
IC50 (Bcl-2-related protein A1 [4]): 3.64 µM (active)
IC50 (Bcl-2-related protein A1 [5]): 10.2 µM (active)

O=C1C(Cl)=C(N2CCN(c3ccc(Cl)c(Cl)c3)CC2)C(=O)N1c1ccc(Cl)c(Cl)c1
IC50 [3]: > 100 µM (not active)
IC50 (Bcl-2-related protein A1 [4]): 65.5 µM (active)
IC50 (Bcl-2-related protein A1 [5]): > 100 µM (not active)

CSC1=C(C#N)C(c2ccccc2Cl)C2=C(O)c3ccccc3C2=N1 (centres undefined)
AC50 (Cytochrome P450 3A4): inconclusive

O=C(/C=C/c1ccccc1)N1CCN(Cc2nc(O)c3ccccc3n2)CC1
AC50 (Cytochrome P450 1A2): 31.6 µM (inconclusive)
IC50 (Beta-galactosidase): > 80 µM (inactive)

CCCCc1c(C)nc2ccc(Br)cc2c1SCCC#N
IC50 (Prothrombin): > 50 µM (not active)
CC50 [6]: 16.3 µM (active)

Oc1c(CN2CCOCC2)ccc2ccccc12
IC50 [7]: > 50 µM (not active)

FC(F)(F)c1nnc2c(Sc3ccccc3)nc3ccc(Cl)cc3n12
EC50 (BJ [8]): 1.8 µM (inconclusive)
EC50 (BJ [9]): 3.65 µM (active)
AC50 (Cytochrome P450 2C9): 8.91 µM (inconclusive)
EC50 (BJ [10]): 23.4 µM (active)
AC50 (Paired box protein Pax-8): 1.52 µM (active)
AC50 (Cytochrome P450 3A4): inconclusive
EC50 [11]: 4.19 µM (active)
EC50 (BJ [12]): 0.599 µM (active)
AC50 (INS1): 7.41 µM (active)

CC(C)(C)c1cc(CN2CCCC(O)C2)c(O)c(C(C)(C)C)c1 (centres undefined)
EC50 [13]: 14.9 µM (active)
EC50 [14]: 15.5 µM (active)

Cc1cccc(NCCC(=O)c2ccc([N+](=O)[O-])cc2)c1C
IC50 (cells): 18 µM (active)
IC50 [7]: > 50 µM (not active)

Cc1cc(NC(=O)CCNS(=O)(=O)c2cc(Br)cnc2N)ccc1Br
CC50 [6]: > 40 µM (active)

O=C(O)c1cccc(Nc2ccnc(Nc3cccc(C(=O)O)c3)n2)c1
EC50 [15]: 0.281 µM (active)
AC50 [16]: 2.9 µM (active)
AC50 (HEK293): 3.56 µM (active)
AC50 [17]: 2.56 µM (active)

COc1ccc(-n2cc(-c3ccccc3)c3c(NN4CCOCC4)ncnc32)cc1
CC50 [18]: > 40 µM (active)
